The source of these data is patent US7300939B2, “Substituted 1-propiolylpiperazine compounds, their preparation and use” (Gruenenthal GmbH, priority 2005, dated 2007).

Counter-ions that a name gives are not always drawn.

Experiment [1] has as its target T1, mGluR5 receptor (Sus scrofa, UniProt I3LUI7).
T1 construct: from tissue; host or cells: pig brain halves without medulla, cerebellum and pons
Briefly: [3H]-MPEP binding in the mGluR5 receptor binding assay (pig brain homogenate). Conditions: for mGluR5-receptor (% inhibition 10 μM) in pigs: pig brain homogenate, 5 nM [3H]-MPEP. On the procedure: I. Method the Determination of the Inhibition of the [^3H]-MPEP Binding in the mGluR5 Receptor Binding Assay
Pig brain homogenate is prepared by homogenization (Polytron PT 3000, Kinematica AG, 10,000 revolutions per minute 90 seconds) of pig brain halves without medulla, cerebellum and pons in a buffer solution having a pH of 8.0 (30 mM of hepes, Sigma, order no. H3375+1 tablet of Complete to 100 ml, Roche Diagnostics, order no. 1836145) in a ratio of 1:20 (brain weight/volume) and differential centrifugation at 900×g and 40,000×g. In each case 450 μg of protein from brain homogenate are incubated with 5 nM [^3H]-MPEP (Tocris, order no. R1212) (MPEP=2-methyl-6-(3-methoxyphenyl)ethynylpyridine) and the compounds to be investigated (10 μM in the test) in a buffer solution (as above) in 250 μl incubation batches in 96-well microtiter plates at room temperature 60 min.
Thereafter, the batches are filtered with the aid of a Brandel cell harvester (Brandel, Robotic 9600 model) onto Unifilter plates with glass fiber filter mats (Perkin Elmer, order no. 6005177) and then rinsed with buffer solution (as above) 3 times with 250 μl per sample each time. The filter plates are then dried 60 min at 55° C. 30 μl Ultima Gold™ scintillator (Packard BioScience, order no. 6013159) are subsequently added per well and, after 3 hours, the samples are measured on a β-counter (Mikrobeta, Perkin Elmer). The non-specific binding is determined by addition of 10 μM of MPEP (Tocris, order no. 1212).

Another experiment relates to rats. Briefly: Formalin test in rats. In kind it is in vivo, rat.
The target in experiment [2] is T2, mGluR5 receptor (Rattus norvegicus, UniProt P31424).
T2 construct: Cortical neurons are prepared from postnatal rats (P2-6) under sterile conditions; endogenous in cells; host or cells: primary cortical neurons from postnatal rats (P2-6)
T2 sequence (P31424 21-1203): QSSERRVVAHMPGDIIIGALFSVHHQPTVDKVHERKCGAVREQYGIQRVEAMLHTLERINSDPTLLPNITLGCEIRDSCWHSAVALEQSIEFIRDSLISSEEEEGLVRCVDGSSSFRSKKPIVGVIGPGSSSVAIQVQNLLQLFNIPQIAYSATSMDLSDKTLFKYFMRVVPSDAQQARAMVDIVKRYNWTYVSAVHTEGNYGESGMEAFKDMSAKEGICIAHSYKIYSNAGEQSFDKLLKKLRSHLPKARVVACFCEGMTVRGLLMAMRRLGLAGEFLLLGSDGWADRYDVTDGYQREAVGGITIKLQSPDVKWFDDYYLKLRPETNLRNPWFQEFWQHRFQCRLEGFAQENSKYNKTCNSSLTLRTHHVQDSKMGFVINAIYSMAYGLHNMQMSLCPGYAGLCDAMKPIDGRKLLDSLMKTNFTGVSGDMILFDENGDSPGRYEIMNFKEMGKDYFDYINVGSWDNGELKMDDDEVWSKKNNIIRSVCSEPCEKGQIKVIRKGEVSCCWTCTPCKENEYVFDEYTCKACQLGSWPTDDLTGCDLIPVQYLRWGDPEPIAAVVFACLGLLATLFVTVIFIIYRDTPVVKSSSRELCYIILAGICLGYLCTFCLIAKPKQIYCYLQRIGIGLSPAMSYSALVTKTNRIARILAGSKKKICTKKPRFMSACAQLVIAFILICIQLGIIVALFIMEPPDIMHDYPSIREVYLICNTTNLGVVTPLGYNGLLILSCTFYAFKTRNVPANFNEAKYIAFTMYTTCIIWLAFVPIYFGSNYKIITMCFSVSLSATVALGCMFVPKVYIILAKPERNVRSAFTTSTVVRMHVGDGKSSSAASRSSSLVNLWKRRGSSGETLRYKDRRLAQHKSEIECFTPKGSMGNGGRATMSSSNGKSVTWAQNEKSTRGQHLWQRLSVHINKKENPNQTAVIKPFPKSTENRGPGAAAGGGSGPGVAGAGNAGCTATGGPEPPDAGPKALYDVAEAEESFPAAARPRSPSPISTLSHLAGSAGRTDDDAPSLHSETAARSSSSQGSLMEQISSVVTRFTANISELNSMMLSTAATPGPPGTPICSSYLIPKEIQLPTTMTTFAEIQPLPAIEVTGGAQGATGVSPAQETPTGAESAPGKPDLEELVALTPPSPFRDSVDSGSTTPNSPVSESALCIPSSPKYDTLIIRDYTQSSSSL
Briefly: Ca2+ influx in the mGluR5 receptor assay (rat cortical neurons, FlexStation). In kind it is cell-based. Conditions: Table I; 10 μM DHPG. The text has this:
II. Method Determination of the Ca^2+ Influx in the mGluR5 Receptor Assay
An agonistic and/or antagonistic action of substances can be determined with the following assay on the mGluR5 receptor of the rat species. According to this assay, the intracellular release of Ca^2+ after activation of the mGluR5 receptor is quantified with the aid of a Ca^2+-sensitive dyestuff (Fluo-4 type, Molecular Probes Europe BV, Leiden, Holland) in a FlexStation (Molecular Devices, Sunnyvale, USA).
Preparation of Cortical Neurons: […]
For the functional investigation, the cells are loaded with 2 μM of Fluo-4 and 0.01 vol. % Pluronic F127 (Molecular Probes Europe BV, Leiden, Holland) in HBSS buffer solution (Hank's buffer saline solution, Gibco Invitrogen GmbH, Karlsruhe, Germany) 30 min at 37° C. […] The Ca^2+-dependent fluorescence is measured before and after the addition of substances (λex=485 nm, λem=525 nm). Quantification is effected by measurement of the highest fluorescence intensity over time. […] After incubation 3 minutes, 10 μM of DHPG ((S)-3,5-dihydroxyphenylglycine, Tocris Biotrend Chemikalien GmbH, Cologne, Germany) are applied and the influx of Ca^2+ is determined simultaneously. mGluR5 antagonists led to a suppression of the Ca^2+ influx. […]

T1 sequence (I3LUI7 19-1212): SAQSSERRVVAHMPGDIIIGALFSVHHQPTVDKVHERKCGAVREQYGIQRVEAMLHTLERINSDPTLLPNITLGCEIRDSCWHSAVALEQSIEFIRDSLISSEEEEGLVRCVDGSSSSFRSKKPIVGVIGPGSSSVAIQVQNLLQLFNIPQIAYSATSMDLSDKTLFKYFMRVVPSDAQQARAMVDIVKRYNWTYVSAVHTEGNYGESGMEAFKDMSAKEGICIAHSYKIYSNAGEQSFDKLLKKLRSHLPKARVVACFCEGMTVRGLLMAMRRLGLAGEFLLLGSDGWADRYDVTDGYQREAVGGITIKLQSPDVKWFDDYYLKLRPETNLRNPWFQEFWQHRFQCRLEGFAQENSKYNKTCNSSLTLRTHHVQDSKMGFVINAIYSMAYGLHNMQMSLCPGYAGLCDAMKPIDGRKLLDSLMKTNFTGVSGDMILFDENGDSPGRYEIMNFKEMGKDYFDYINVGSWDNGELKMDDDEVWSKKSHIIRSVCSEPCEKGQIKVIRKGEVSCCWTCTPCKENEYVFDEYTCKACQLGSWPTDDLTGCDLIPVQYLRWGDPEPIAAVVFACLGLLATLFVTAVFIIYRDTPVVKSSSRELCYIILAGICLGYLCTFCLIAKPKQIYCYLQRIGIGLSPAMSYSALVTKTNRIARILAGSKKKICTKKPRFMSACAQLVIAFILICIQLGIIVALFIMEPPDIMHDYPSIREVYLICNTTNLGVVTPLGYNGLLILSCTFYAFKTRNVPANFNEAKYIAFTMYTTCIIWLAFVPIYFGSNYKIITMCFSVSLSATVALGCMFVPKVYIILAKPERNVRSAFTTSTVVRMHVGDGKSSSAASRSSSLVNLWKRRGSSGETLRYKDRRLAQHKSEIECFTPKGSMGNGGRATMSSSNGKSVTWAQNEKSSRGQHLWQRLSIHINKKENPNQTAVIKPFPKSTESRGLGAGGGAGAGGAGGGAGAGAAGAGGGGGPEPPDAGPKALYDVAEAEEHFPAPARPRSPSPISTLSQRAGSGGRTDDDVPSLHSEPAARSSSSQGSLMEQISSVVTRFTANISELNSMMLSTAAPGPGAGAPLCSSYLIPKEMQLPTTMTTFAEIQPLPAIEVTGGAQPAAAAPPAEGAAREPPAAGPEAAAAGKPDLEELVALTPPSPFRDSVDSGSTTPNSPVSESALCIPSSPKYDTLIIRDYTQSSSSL

Turning to `O=C(C#Cc1cccc(Cl)c1)N1CCN(c2nccs2)CC1` [Example AAA24, 4-(Thiazol-2-yl)-1-(3-(3-chlorophenyl)propiolyl)piperazine], the “mGluR5-receptor (% inhibition 10 μM) in pigs” value on mGluR5 receptor [1] worked out at 88%. The “Reduction of nociceptive behavior of rats compared with control rats [%]” value (from here on “Reduction of nociceptive behavior of rats … [%]”) in the experiment on rats (46.4 mg/kg i.p.) is 43%.

`Cc1cccc(C#CC(=O)N2CCN(c3nccs3)CC2C)c1` (stereo not drawn) [Example AAA68, 2-Methyl-4-(thiazol-2-yl)-1-(3-(3-tolyl)propiolyl)piperazine] came in with an IC50 at mGluR5 receptor [1] (Table II, unit inferred) of 13 nM. In addition, the “Reduction of nociceptive behavior of rats … [%]” value in the experiment with rats (46.4 mg/kg p.o.) was determined as 66%.

With `O=C(C#Cc1ccccc1)N1CCN(c2nccs2)CC1` [Example AAA56, 4-(Thiazol-2-yl)-1-(3-phenylpropiolyl)piperazine hydrochloride], at mGluR5 receptor [1] (Table II, unit inferred), the half-inhibitory concentration (IC50) came to 150 nM. Also, the “Reduction of nociceptive behavior of rats … [%]” value in the experiment with rats (46.4 mg/kg i.p.) worked out at 85%.

`Cc1cccc(C#CC(=O)N2CCN(c3nccs3)CC2)c1.Cl` [Example AAA54, 4-(Thiazol-2-yl)-1-(3-(3-tolyl)propiolyl)piperazine hydrochloride]: the “mGluR5-receptor (% inhibition 10 μM) in pigs” value at mGluR5 receptor [1] is on record as 97%. Further, in the experiment on rats (10.0 mg/kg i.v.), the “Reduction of nociceptive behavior of rats … [%]” value came to 72%.

Take `O=C(C#Cc1ccccc1)N1CCN(c2nccs2)CC1` [Example 1, 1-(3-phenylpropiolyl)-4-(thiazol-2-yl)piperazine]: the IC50 at mGluR5 receptor [1] (Table I) worked out at 100 nM; against mGluR5 receptor [2], 190 nM.

`CC(C)(C)c1csc(N2CCN(C(=O)C#Cc3ccc(N)cc3)CC2)n1` [Example AAA00107, 4-(4-tert-Butylthiazol-2-yl)-1-(3-(4-aminophenyl)propiolyl)piperazine]: the “mGluR5-receptor (% inhibition 10 μM) in pigs” value at mGluR5 receptor [1] was determined as 30%.

`O=C(C#Cc1ccccc1)N1CCN(c2nc(Br)cs2)CC1` [Example AAA97, 4-(4-Bromothiazol-2-yl)-1-(3-phenylpropiolyl)piperazine]: the IC50 at mGluR5 receptor [1] (Table II, unit inferred) was found to be 720 nM.

Consider `O=C(C#Cc1ccc(F)cc1)N1CCN(c2nccs2)CC1` [Example AAA61, 4-(Thiazol-2-yl)-1-(3-(4-fluorophenyl)propiolyl)piperazine], for which the “mGluR5-receptor (% inhibition 10 μM) in pigs” value at mGluR5 receptor [1] was 76%.

On to `COc1nsc(N2CCN(C(=O)C#Cc3ccccc3)CC2)n1` [Example AAA00102, 4-(3-Methoxy-1,2,4-thiadiazol-5-yl)-1-(3-phenylpropiolyl)piperazine], for which the “mGluR5-receptor (% inhibition 10 μM) in pigs” value on mGluR5 receptor [1] is 61%.

On to `CCOC(=O)c1cnc(N2CCN(C(=O)C#Cc3ccccc3)CC2)s1` [Example AAA76, 4-(5-Carboxy-thiazol-2-yl)-1-(3-phenylpropiolyl)piperazine ethyl ester], for which, at mGluR5 receptor [1] (Table II, unit inferred), the IC50 was determined as 170 nM.

Take `O=C(C#Cc1ccc(F)cc1F)N1CCN(c2nccs2)CC1` [CCC22, 4-(Thiazol-2-yl)-1-(3-(2,4-difluorophenyl)propiolyl)piperazine]: the 50% inhibitory concentration (IC50) at mGluR5 receptor [1] (Table II, unit inferred) came to 10500 nM.

Consider `COc1ccccc1C#CC(=O)N1CCN(c2nccs2)CC1` [Example AAA12, 4-(Thiazol-2-yl)-1-(3-(2-methoxyphenyl)propiolyl)piperazine], for which the “mGluR5-receptor (% inhibition 10 μM) in pigs” value on mGluR5 receptor [1] is listed as 34%.

Compound `CC(C)(C)C1CN(c2nccs2)CCN1C(=O)C#Cc1ccccc1` (stereo not drawn) [AAA00121, 2-tert-Butyl-4-(thiazol-2-yl)-1-(3-phenylpropiolyl)piperazine] came in with an IC50 on mGluR5 receptor [1] (Table II, unit inferred) of 110 nM.

At mGluR5 receptor [1] (Table II, unit inferred), `C=Cc1cccc(C#CC(=O)N2CCN(c3nccs3)CC2)c1` [Example AAA31, 4-(Thiazol-2-yl)-1-(3-(3-ethenylphenyl)propiolyl)piperazine] came in with a half-inhibitory concentration (IC50) of 38 nM.

Take `COc1ccc(C#CC(=O)N2CCN(c3nccs3)CC2)cc1` [Example AAA14, 4-(Thiazol-2-yl)-1-(3-(4-methoxyphenyl)propiolyl)piperazine]: the “mGluR5-receptor (% inhibition 10 μM) in pigs” value at mGluR5 receptor [1] was 34%.

On mGluR5 receptor [1] (Table II, unit inferred), `CCCCCC#CC(=O)N1CCN(c2nccs2)CC1` [Example AAA60, 4-(Thiazol-2-yl)-1-(3-pentylpropiolyl)piperazine] had a half-inhibitory concentration (IC50) of 1850 nM.

For the compound `O=C(C#Cc1ccc2[nH]ccc2c1)N1CCN(c2nccs2)CC1` [Example AAA9, 4-(Thiazol-2-yl)-1-(3-(indol-5-yl)propiolyl)piperazine], the IC50 at mGluR5 receptor [1] (Table II, unit inferred) came out at 700 nM.

On to `CN(C)c1cccc(C#CC(=O)N2CCN(c3nccs3)CC2)c1` [Example AAA00113, 4-(Thiazol-2-yl)-1-(3-(3-dimethylaminophenyl)propiolyl)piperazine], for which, at mGluR5 receptor [1], the “mGluR5-receptor (% inhibition 10 μM) in pigs” value was found to be 27%.

As to `O=C(C#Cc1ccccc1)N1CCN(c2nc(-c3ccccc3)ns2)CC1` [Example AAA82, 4-(3-Phenyl-1,2,4-thiadiazol-5-yl)-1-(3-phenylpropiolyl)piperazine], the “mGluR5-receptor (% inhibition 10 μM) in pigs” value at mGluR5 receptor [1] came out at 37%.

In the case of `O=C(C#CC1CCCCC1)N1CCN(c2nccs2)CC1` [Example AAA69, 4-(Thiazol-2-yl)-1-(3-cyclohexylpropiolyl)piperazine], the “mGluR5-receptor (% inhibition 10 μM) in pigs” value on mGluR5 receptor [1] is recorded as 72%.

On to `CC1CN(c2nccs2)CCN1C(=O)C#Cc1ccccc1.Cl` (stereo not drawn) [Example AAA66, 2-Methyl-4-(thiazol-2-yl)-1-(3-phenylpropiolyl)piperazine hydrochloride], for which the “mGluR5-receptor (% inhibition 10 μM) in pigs” value on mGluR5 receptor [1] came to 93%.

For `O=C(C#Cc1cccs1)N1CCN(c2nccs2)CC1` [Example AAA10, 4-(Thiazol-2-yl)-1-(3-(2-thienyl)propiolyl)piperazine], at mGluR5 receptor [1] (Table II, unit inferred), the IC50 came out at 980 nM.

On mGluR5 receptor [1] (Table II, unit inferred), `Cc1cc(F)cc(C#CC(=O)N2CCN(c3nccs3)CC2)c1` [Example AAA00110, 4-(Thiazol-2-yl)-1-(3-(3-fluoro-5-methylphenyl)propiolyl)piperazine] showed an IC50 of 1390 nM.

As for `O=Cc1cccc(C#CC(=O)N2CCN(c3nccs3)CC2)c1` [Example AAA30, 4-(Thiazol-2-yl)-1-(3-(3-formylphenyl)propiolyl)piperazine], on mGluR5 receptor [1], the “mGluR5-receptor (% inhibition 10 μM) in pigs” value is on record as 91%.

`CC1CN(c2nccs2)CCN1C(=O)C#Cc1cccc(C#N)c1` (stereo not drawn) [AAA00123, 2-Methyl-4-(thiazol-2-yl)-1-(3-(3-cyanophenyl)propiolyl)piperazine] gave an IC50 on mGluR5 receptor [1] (Table II, unit inferred) of 19 nM.

For orientation: IC50 means the concentration needed to halve the response being measured. Low readings indicate greater potency, high ones weaker potency.
